According to patent US8178579B2, “Dioxanes and uses thereof” (President and Fellows of Harvard College, priority 2001, dated 2012):

Legend:
[1] = tested on: α-tubulin deacetylation; settings: cited from earlier work
[2] = tested on: α-tubulin acetylation in the presence of ITSA1; settings: cited from earlier work
[3] = biological target: human FKBP12 (Homo sapiens, UniProt P62942); assay: small molecule microarray protein-binding assay; settings: labeled protein
Description: In addition to phenotypic assays, over fifty protein-binding assays have been performed with the 1,3-dioxane library using small molecule microarrays (MacBeath et al. J. Am. Chem. Soc. 1999, 121, 7967-7968; Peterson et al. Proc. Natl. Acad. Sci. U.S.A. 2000, 97, 12965-12969). The microarrays were constructed by covalent attachment of […] of each stock solution to a glass slide using a contact printing robot. Labeled proteins were used to probe the microarray for small molecule partners.

[4] = tested on: cyclin B degradation pathway; assay: Xenopus laevis oocyte extract assay of cyclin B degradation; settings: 4 μL assay volume
Description: (§1) Biologically active 1,3-dioxanes have been identified in phenotypic assays in cell culture, zebrafish, and Xenopus laevis oocyte extract (FIG. 22).

[5] = tested on: cyclin B degradation; assay: cyclin B degradation assay in HeLa cells; format: cell-based; settings: 30 μL assay volume
Description: as §1

[6] = biological target: T1, HDAC6 (Homo sapiens, UniProt Q9UBN7); assay: HDAC assay, [3H]acetate-incorporated histones with immunoprecipitated FLAG-tagged HDAC6 (HDAC6F); format: biochemical; design: made in house; host or cells: TAg Jurkat cells, transient transfection, anti-FLAG M2 immunoprecipitation; settings: calculated IC50, data in duplicate, at least two experiments; read-out: IC50 against HDAC6
T1 sequence (Q9UBN7 1-1215): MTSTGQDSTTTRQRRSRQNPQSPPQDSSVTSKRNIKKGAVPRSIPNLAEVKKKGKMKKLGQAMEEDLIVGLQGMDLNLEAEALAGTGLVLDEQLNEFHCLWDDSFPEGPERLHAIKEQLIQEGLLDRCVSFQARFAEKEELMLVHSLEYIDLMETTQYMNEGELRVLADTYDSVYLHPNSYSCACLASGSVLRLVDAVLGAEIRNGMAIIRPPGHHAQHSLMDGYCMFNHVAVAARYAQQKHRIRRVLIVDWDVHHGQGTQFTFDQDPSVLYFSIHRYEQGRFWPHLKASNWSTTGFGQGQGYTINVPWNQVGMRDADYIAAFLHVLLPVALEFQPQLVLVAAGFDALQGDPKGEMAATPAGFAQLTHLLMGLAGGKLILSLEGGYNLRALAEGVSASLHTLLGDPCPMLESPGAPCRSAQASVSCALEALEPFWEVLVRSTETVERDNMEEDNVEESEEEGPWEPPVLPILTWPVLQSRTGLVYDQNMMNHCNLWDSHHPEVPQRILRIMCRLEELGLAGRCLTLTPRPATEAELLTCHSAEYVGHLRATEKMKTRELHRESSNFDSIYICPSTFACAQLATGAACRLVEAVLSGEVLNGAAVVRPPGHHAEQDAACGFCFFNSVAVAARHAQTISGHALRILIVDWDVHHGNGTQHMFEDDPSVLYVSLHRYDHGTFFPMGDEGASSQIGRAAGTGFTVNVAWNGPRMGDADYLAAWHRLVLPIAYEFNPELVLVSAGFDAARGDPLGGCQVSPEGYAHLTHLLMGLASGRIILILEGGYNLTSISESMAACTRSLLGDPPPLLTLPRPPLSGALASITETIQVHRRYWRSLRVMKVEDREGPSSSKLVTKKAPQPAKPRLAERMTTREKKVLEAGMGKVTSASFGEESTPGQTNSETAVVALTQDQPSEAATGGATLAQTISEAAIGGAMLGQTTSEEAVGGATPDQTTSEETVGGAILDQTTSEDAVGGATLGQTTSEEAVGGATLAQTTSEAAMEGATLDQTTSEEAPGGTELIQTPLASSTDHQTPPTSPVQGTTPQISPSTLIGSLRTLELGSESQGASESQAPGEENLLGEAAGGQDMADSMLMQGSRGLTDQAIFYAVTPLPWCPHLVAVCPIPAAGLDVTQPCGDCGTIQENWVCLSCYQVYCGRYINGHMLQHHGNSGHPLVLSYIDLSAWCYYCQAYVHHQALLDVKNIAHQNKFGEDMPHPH
Description: (§2) Cell culture and Transfections. TAg-Jurkat cells were transfected by electroporation with 5 μg of FLAG-epitope-tagged pBJ5 constructs (as described in ref. 5c) for expression of recombinant proteins. Cells were harvested 48 h posttransfection.
HDAC assays. […] Compounds were added in DMSO such that final assay concentrations were 1% DMSO. IC50s were calculated using Prism 3.0 software. Curve fitting was done without constraints using the program's Sigmoidal-Dose Response parameters. All data points were acquired in duplicate and IC50s are calculated from the composite results of at least two separate experiments.
Tubulin and MAPs were isolated from bovine brain as described [See http://mitchison.med.harvard.edu/protocols/tubprep.html]. Whole brain and fractions from phosphocellulose chromatography were blotted for HDAC6 and acetylated α-tubulin. Cultured hippocampal neurons from dissociated 1-day old rat brains were transfected with an enhanced green fluorescent protein (EGFP)-actin construct at 4-5 days using the calcium phosphate method [E. N. Star, D. J. Kwiatkowski and V. N. Murthy, Nat. Neurosci. […] K. Miranti and M. E. Greenberg, J. Neurosci. […] Transfected cultures were allowed to grow for at least 48 h before the addition of experimental compounds.
[^3H]Acetate-incorporated histones were isolated from butyrate-treated HeLa cells as described [J. Taunton, C. […] Immunoprecipitates were incubated with acetylated histones and HDAC activity determined by scintillation counting as described [J. Taunton, C. […] TDAC assays were performed with immunoprecipitates using MAP-stabilized microtubules polymerized from MAP-rich tubulin fraction as described [C. […] Reactions were incubated (2 h) at 37° C., then incubated on ice (15 min).

[7] = biological target: T2, HDAC1 (Homo sapiens, UniProt Q13547); assay: HDAC assay, [3H]acetate-incorporated histones with immunoprecipitated FLAG-tagged HDAC1; format: biochemical; settings: calculated IC50, data in duplicate, at least two experiments; read-out: IC50 against HDAC1
T2 construct: made in house; host or cells: TAg-Jurkat cells, transient transfection, then immunoprecipitation
Description: as §2
HDAC assays. [^3H]Acetate-incorporated histones were isolated from butyrate-treated HeLa cells by hydroxyapatite chromatography (as described in Tong, et al. Nature 1997, 395, 917-921.) Immunoprecipitates were incubated with 1.4 μg (10,000 dpm) histones for 3 h at 37° C. HDAC activity was determined by scintillation counting of the ethyl acetate-soluble [^3H]acetic acid (as described in Taunton, et al., Science 1996, 272, 408-411). Compounds were added in DMSO such that final assay concentrations were 1% DMSO. IC50s were calculated using Prism 3.0 software. Curve fitting was done without constraints using the program's Sigmoidal-Dose Response parameters. All data points were acquired in duplicate and IC50s are calculated from the composite results of at least two separate experiments.

human FKBP12, sequence (P62942 whole entry): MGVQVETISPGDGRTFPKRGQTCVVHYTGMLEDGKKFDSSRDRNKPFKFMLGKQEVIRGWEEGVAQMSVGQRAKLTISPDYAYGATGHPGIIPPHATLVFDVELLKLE
T2 sequence (Q13547 whole entry): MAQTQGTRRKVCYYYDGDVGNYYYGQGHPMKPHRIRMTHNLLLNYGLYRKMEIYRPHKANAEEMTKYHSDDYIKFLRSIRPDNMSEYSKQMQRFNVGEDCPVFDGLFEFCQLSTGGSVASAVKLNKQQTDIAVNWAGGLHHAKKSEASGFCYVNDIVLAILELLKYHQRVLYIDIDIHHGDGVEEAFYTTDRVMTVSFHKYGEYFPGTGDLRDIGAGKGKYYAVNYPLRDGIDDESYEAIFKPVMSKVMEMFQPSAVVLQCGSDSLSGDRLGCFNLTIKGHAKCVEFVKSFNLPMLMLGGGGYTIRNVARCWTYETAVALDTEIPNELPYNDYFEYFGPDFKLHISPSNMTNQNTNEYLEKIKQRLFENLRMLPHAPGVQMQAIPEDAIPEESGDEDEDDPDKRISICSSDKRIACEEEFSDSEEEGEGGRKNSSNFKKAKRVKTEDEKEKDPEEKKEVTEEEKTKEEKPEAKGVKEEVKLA

## CC(=O)O[C@H]1C(=O)[C@@]2(C)[C@H]([C@H](OC(=O)c3ccccc3)[C@]3(O)C[C@H](OC(=O)[C@H](O)[C@@H](NC(=O)c4ccccc4)c4ccccc4)C(C)=C1C3(C)C)[C@]1(OC(C)=O)CO[C@@H]1C[C@@H]2O [taxol, Paclitaxel]
[1]
  effect on α-tubulin acetylation, stated as known: increases α-tubulin acetylation due to direct stabilization of microtubules
[2]
  suppression by ITSA1, stated as known: is not suppressed by ITSA1

## (αS)-2-acetyloxy)-N-[[4-[(4R,5S,6S)-4-[4-(hydroxymethyl)phenyl]-6-[[4,5-d]phenyl-2-oxazolyl)thio]methyl]61,3-dioxan-2-yl]phenyl]methyl-propionamide [compound 14]
[3]
  binding to human FKBP12 on small molecule microarray: bind to human FKBP12

## C[C@H]1[C@@H](CN2CCC3(CC2)OCCO3)OC(c2cccc(NS(=O)(=O)c3ccccc3)c2)O[C@H]1c1ccc(CO)cc1 (mixture of isomers) [compound 10, (±)-N-[3-[(4S,5R,6R)-4-(1,4-dioxa-8-azaspiro[4.5]dec-8-ylmethyl)-6-[4-(hydroxymethyl)phenyl]-5-methyl-1,3-dioxan-2-yl]phenyl-benzenesulfonamide]
[4]
  activity in Xenopus laevis oocyte extract cyclin B degradation assay: Neither set of compounds was active in both assay systems
[5]
  activity in HeLa cell cyclin B degradation assay: inhibitory activity
[6]
  IC50: ~1000 nM
[7]
  IC50: ~1000 nM
